Test results reported in patent publication US20080124741A1, “Canine Cholecystokinin 1 Receptor Materials And Their Use” (priority 2004, published 2008).
Positions count from the first letter of the chain named. Read-outs that look alike come from different tables or passages of the source. Blank lines part the entries; values can stand above or below the molecule they belong to. Square brackets hold non-standard residues; d marks the D form. Ends that are not written are not given here. sY = N[C@@H](Cc1ccc(OS(=O)(=O)O)cc1)C(=O)O

How the values were obtained:
[1] = molecular target: T1, canine CCK2 receptor (Canis lupus familiaris, UniProt P30552); test: competition binding of [125I]-BH-CCK-8S at canine CCK2 receptor; settings: for fold higher affinity at the canine CCK2 receptor compared to the canine CCK1 receptor: canine CCK2 over canine CCK1
T1 sequence (P30552 1-453): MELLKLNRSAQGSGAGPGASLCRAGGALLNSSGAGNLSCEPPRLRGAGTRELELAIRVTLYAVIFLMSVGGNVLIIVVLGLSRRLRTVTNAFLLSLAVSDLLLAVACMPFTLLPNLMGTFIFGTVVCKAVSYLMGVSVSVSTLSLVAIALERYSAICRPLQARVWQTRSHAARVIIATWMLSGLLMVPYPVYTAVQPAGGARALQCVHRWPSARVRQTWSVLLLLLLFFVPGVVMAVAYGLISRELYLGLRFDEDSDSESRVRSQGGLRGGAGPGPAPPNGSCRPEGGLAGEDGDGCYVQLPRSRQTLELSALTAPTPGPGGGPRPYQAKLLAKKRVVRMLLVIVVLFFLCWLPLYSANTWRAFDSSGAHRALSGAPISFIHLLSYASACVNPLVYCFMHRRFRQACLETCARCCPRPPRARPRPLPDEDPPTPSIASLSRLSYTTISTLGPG

[2] = molecular target: T2, Canine CCK1: Wild-type (Canis lupus familiaris, UniProt Q5D0K2); test: competition binding at wild-type canine CCK1 receptor transiently transfected in HEK cells; settings: n = 3, ± s.e. mean; for Ki: read-out: pKI (affinity value, -log equilibrium dissociation constant) (converted)
T2 construct: The ORF encodes a 428 amino-acid protein; expressed in transfected cells; host or cells: HEK-293 cells, transient
T2 sequence (Q5D0K2 1-428): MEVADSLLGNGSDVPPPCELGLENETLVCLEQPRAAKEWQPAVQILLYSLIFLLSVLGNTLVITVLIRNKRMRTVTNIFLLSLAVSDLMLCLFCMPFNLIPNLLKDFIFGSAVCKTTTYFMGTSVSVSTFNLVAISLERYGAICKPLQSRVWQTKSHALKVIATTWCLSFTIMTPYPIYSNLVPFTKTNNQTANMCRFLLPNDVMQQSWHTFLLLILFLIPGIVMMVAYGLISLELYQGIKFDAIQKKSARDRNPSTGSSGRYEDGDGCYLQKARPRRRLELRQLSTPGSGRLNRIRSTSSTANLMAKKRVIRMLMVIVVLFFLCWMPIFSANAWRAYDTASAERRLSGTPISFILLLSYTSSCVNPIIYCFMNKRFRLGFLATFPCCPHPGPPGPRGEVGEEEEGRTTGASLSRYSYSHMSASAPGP

[3] = molecular target: T3, canine CCK1 receptor (Canis lupus familiaris, UniProt Q5D0K2); test: competition binding of [125I]-BH-CCK-8S at cloned canine CCK1 receptor stably expressed in CHO-K cells
T3 construct: expressed in transfected cells
T3 sequence (Q5D0K2 1-428): T2 sequence (Q5D0K2 1-428)

[4] = molecular target: T4, human CCK1 receptor (Homo sapiens, UniProt P32238); test: competition binding of [125I]-BH-CCK-8S at cloned human CCK1 receptor
T4 construct: expressed in transfected cells
T4 sequence (P32238 1-428): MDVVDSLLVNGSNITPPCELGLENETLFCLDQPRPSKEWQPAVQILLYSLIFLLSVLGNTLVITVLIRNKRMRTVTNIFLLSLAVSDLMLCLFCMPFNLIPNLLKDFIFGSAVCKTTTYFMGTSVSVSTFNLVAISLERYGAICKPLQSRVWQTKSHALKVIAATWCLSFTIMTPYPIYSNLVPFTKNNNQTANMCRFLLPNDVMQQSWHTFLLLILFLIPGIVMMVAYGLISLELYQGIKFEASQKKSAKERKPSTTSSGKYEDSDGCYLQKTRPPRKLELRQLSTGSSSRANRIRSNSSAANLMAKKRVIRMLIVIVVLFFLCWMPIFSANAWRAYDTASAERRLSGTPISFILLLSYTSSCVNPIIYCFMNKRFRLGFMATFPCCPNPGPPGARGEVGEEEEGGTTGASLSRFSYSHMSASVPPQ

[5] = molecular target: T5, Canine CCK1: Variant #1 (Canis lupus familiaris, UniProt Q5D0K2, G258S/L413V/V400A); test: competition binding at variant #1 canine CCK1 receptor transiently transfected in HEK cells; settings: Canine CCK1 variant #1, transiently transfected in HEK cells, n = 3, ± s.e. mean; for Ki: read-out: pKI (affinity value, -log equilibrium dissociation constant) (converted)
T5 construct: plasmid DNAs containing the respective variant canine CCK1 receptor cDNAs and the wild type cDNA were transiently transfected; expressed in transfected cells; host or cells: HEK-293 cells, transient
T5 sequence (Q5D0K2 1-428 G258S/V400A/L413V): T2 sequence (Q5D0K2 1-428) with G258S, V400A, L413V

[6] = molecular target: T6, guinea-pig pancreatic CCK1 receptors (Cavia porcellus, UniProt Q63931); settings: guinea-pig pancreatic CCK1 receptors (Takinami et al., 1997); cited from earlier work
T6 construct: host or cells: guinea-pig pancreas
T6 sequence (Q63931 1-430): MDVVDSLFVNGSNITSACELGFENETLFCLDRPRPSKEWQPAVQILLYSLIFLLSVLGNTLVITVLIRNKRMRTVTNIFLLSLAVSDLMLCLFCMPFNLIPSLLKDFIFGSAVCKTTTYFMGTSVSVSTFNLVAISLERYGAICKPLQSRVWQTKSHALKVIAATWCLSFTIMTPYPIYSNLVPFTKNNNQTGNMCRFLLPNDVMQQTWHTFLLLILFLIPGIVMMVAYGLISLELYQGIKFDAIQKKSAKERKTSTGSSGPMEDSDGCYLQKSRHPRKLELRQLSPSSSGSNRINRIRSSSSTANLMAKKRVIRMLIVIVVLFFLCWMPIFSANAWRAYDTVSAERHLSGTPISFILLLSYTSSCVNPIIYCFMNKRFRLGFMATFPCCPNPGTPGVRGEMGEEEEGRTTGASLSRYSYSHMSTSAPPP

[7] = tested on: putative CCK1 receptor binding sites labeled with [3H]-L-364,718; settings: canine intestine (Mao et al., 1995); cited from earlier work
[8] = molecular target: T7, wild-type canine CCK1 receptor (canine, UniProt Q5D0K2 1-428); test: saturation radioligand binding, membranes of stably transfected CHO cells, first phase of the isotherm
T7 construct: Full-length receptor, stably expressed in CHO-K cells or transiently in HEK-293 cells; It was assayed as membrane preparations of those cells; also called canine cholecystokinin 1 receptor; control wild-type canine CCK1R protein
T7 sequence: T2 sequence (Q5D0K2 1-428)

[9] = molecular target: T8, canine CCK1 receptor variant #2 (canine, UniProt Q5D0K2 1-428); test: radioligand binding (20 pM [125I]-BH-CCK-8S) against increasing membrane protein, transiently transfected HEK cells
T8 construct: Six amino-acid differences from wild type; Transiently expressed in HEK-293 cells and assayed as membrane preparations; also called canine CCK1 variant #2 receptor
T8 chain: T2 sequence (Q5D0K2 1-428) with S12G, L27P, L99P, G258S, V400A, L413V

[10] = Canine CCK2, [125I]-BH-CCK-8S radiolabel, n = 3, ± s.e. mean
[11] = Canine CCK2, [125I]-BH-CCK-8S radiolabel, n = 3, ± s.e. mean, read-out: pKI (affinity value, -log equilibrium dissociation constant) (converted)
[12] = Canine CCK1, CHO-K cells, [125I]-BH-CCK-8S radiolabel, n = 3, ± s.e. mean
[13] = Human CCK1, [125I]-BH-CCK-8S radiolabel, n = 3, ± s.e. mean
[14] = Canine CCK1, CHO-K cells, [125I]-BH-CCK-8S radiolabel, n = 3, ± s.e. mean, read-out: pKI (affinity value, -log equilibrium dissociation constant) (converted)
[15] = Human CCK1, [125I]-BH-CCK-8S radiolabel, n = 3, ± s.e. mean, read-out: pKI (affinity value, -log equilibrium dissociation constant) (converted)

Molecule: CN1C(=O)[C@@H](NC(=O)c2cc3ccccc3[nH]2)N=C(c2ccccc2)c2ccccc21 [L-364,718]
- nH (Hill slope) [1, 10]: 0.87 ± 0.06
- Ki [1, 11]: 24 nM

Molecule: Cc1cccc(NC(=O)N[C@@H]2N=C(c3ccccc3)c3ccccc3N(C)C2=O)c1 [L-365,260, 3R(+)—N-(2,3-dihydro-1-methyl-2-oxo-5-phenyl-1H-1,4-benzodiazepin-3-yl)-N′-(3-methylphenyl)urea]
- nH (Hill slope) [2]: 0.96 ± 0.32
- Ki [2]: 219 nM
- Ki [3]: 245 nM
- nH (Hill slope) [3, 12]: 1.17 ± 0.09
- Ki [4]: 245 nM
- nH (Hill slope) [4, 13]: 1.32 ± 0.14
- Ki [1]: 93.3 nM
- nH (Hill slope) [1, 10]: 0.95 ± 0.08
- fold higher affinity at the canine CCK2 receptor compared to the canine CCK1 receptor [1]: ~2.6 fold
- nH (Hill slope) [5]: 1.08 ± 0.33
- Ki [5]: 155 nM

Molecule: Cc1cccc(NC(=O)N[C@@H]2N=C(c3ccccc3)c3ccccc3N(CC(=O)c3ccccc3C)C2=O)c1 [YM022, 1-[(R)-2,3-dihydro-1-(2-methylphenacyl)-2-oxo-5-phenyl-1H-1,4-benzodiazepin-3-yl]-3-(3-methylphenyl)urea]
- nH (Hill slope) [2]: 1.17 ± 0.30
- Ki [2]: 11 nM
- nH (Hill slope) [3, 12]: 1.09 ± 0.13
- Ki [3, 14]: 5.25 nM
- nH (Hill slope) [4, 13]: 1.15 ± 0.14
- Ki [4, 15]: 7.76 nM
- inhibitory effect at [3H]-L-364,718 binding sites [7]: no inhibitory effect
- Ki [1]: 0.195 nM
- nH (Hill slope) [1, 10]: 0.92 ± 0.10
- fold higher affinity at the canine CCK2 receptor compared to the canine CCK1 receptor [1]: 27 fold
- nH (Hill slope) [5]: 1.39 ± 0.39
- Ki [5]: 8.32 nM

Now from value to molecule, other results behind:

- nH (Hill slope) [2]: 0.60 ± 0.22
- Ki [2]: 12 nM
- nH (Hill slope) [3, 12]: 0.88 ± 0.08
- Ki [3, 14]: 12.3 nM
- nH (Hill slope) [4, 13]: 0.95 ± 0.07
- Ki [4, 15]: 13.5 nM
- nH (Hill slope) [1, 10]: 0.91 ± 0.10
- Ki [1, 11]: 1.05 nM
- fold higher affinity at the canine CCK2 receptor compared to the canine CCK1 receptor [1]: ~12 fold
- nH (Hill slope) [5]: 1.14 ± 0.37
- Ki [5]: 15.1 nM
Molecule: CNc1cccc(NC(=O)N[C@@H]2N=C(c3ccccn3)c3ccccc3N(CC(=O)C(C)(C)C)C2=O)c1 [YF476]
- reported pK1 value [6]: ~6.5

- nH (Hill slope) [2]: 1.33 ± 0.43
- Ki [2]: 16.6 nM
- nH (Hill slope) [3, 12]: 0.83 ± 0.13
- Ki [3, 14]: 29.5 nM
- fold higher affinity at the canine CCK1 receptor (compared to canine CCK2) ([3]; canine CCK1 over canine CCK2): 93 fold
- nH (Hill slope) [4, 13]: 0.91 ± 0.18
- Ki [4, 15]: 29.5 nM
- nH (Hill slope) [1, 10]: 0.71 ± 0.09
- Ki [1, 11]: 2750 nM
- nH (Hill slope) [5]: 0.90 ± 0.17
- Ki [5]: 16.6 nM
Molecule: CCCCCN(CCCOC)C(=O)[C@@H](CCC(=O)O)NC(=O)c1ccc(Cl)c(Cl)c1 [dexloxiglumide, (R)-4-(3,4-Dichloro-benzoylamino)-4-[(3-methoxy-propyl)-pentyl-carbamoyl]-butyric acid]

- pKD [8]: 10.5 pKD (negative log of KD)
- binding result [9]: no binding (tested: 2500 µg/ml protein)
B1: [^125I]-BH-CCK-8S (peptide, UniProt P06307 96-103, looked up)
peptide: {BH(125I)}-D[sY]MGWMDF
modifications: not fully specified (C-terminus); ends and bridges not checked; also: sulfated, site not given here, 125I Bolton-Hunter conjugate, site not given here
notes: Radioligand; also called Bolton-Hunter conjugated sulfated CCK-8
